Experimental findings from US8580815B2, “Derivatives of azaindoles as inhibitors of protein kinases ABL and SRC” (Oribase Pharma, priority 2009, dated 2013) are described below.

One may read the inhibition as the percentage by which the read-out fell short of the control. Broadly, the pIC50 is −log10 of the IC50, conventionally taken in molar units. By IC50 is commonly meant the midpoint of a concentration-inhibition curve.

One experiment addresses Abl kinase (h) (Homo sapiens (Human), UniProt P00519). In words: Cerep kinase profiling, HTRF assay, Abl kinase. Type of experiment: biochemical. How it is done:
(§1) The inhibitory activity of the compounds of the chemical series on different protein kinases was evaluated by Cerep (Cerep Kinase Profiling Service; www.cerep.com). The kinases used in the tests in vitro are human recombinant proteins expressed in human cells, insect cells or in bacteria. […] The activity of the kinase was then detected by an HTRF assay. The HTRF assay (CisBio International) is based on fluorescence transfer, using Europium (Eu3+) cryptate and XL665 respectively as donor and acceptor. When the biotinylated or tagged substrate is phosphorylated by the kinase, it reacts with a cryptate-labelled phosphospecific antibody. Addition of Streptavidin-XL665, SA-XL665, (or anti-tag antibody XL665) leads to juxtaposition of the cryptate and of the fluorophore XL665, which is reflected in fluorescence resonance energy transfer (FRET). The intensity of FRET depends on the quantity of cryptate-labelled antibody bound to the substrate, which is proportional to the quantity of phosphorylated substrate (Mathis, G. Probing molecular interactions with homogeneous techniques based on rare earth cryptates and fluorescence energy transfer.

A further experiment concerns the target c-kit kinase (h) (Homo sapiens (Human), UniProt P10721). In words: Cerep kinase profiling, HTRF assay, c-kit kinase. Type of experiment: biochemical. The note with it: compound incubated at 10 μM; read-out: Percentage inhibition of kinase c-kit. The procedure: as §1, with “bacteria. [table]” for “bacteria.”, “transfer. Clin Chem 41, 1391-7 (1995)).” for “transfer.”
In general terms: TR-FRET usually uses a lanthanide donor and a delayed reading to cut background.

For the next experiment, the target named is Src kinase (h) (Homo sapiens (Human), UniProt P12931). In words: Cerep kinase profiling, HTRF assay, Src kinase. The experiment is classed as biochemical. How it is done:
as §1

For another experiment, the target named is AurA/Aur2 kinase (h) (Homo sapiens (Human), UniProt O14965). In words: Cerep kinase profiling, HTRF assay, Aurora-A kinase. Type of experiment: biochemical. The note with it: compound incubated at 10 μM; read-out: Percentage inhibition of kinase Aurora-A. The procedure: as §1, with “bacteria. [table]” for “bacteria.”, “transfer. Clin Chem 41, 1391-7 (1995)).” for “transfer.”
Sequence of AurA/Aur2 kinase (h) (O14965 whole entry): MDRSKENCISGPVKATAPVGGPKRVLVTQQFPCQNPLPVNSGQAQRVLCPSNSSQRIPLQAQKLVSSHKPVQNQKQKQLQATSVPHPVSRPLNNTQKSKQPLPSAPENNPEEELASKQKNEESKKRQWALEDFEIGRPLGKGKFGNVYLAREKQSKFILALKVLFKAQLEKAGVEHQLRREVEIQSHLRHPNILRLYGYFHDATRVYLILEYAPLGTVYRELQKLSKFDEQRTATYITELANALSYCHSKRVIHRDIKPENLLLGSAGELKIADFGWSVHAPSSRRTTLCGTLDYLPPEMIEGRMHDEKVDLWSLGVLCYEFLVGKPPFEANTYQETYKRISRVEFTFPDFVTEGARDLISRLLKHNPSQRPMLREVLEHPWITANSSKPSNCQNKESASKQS

In another experiment the target is PDGFRα kinase (h) (Homo sapiens (Human), UniProt P16234). In words: Cerep kinase profiling, HTRF assay, PDGFRα kinase. The conditions noted are these: compound incubated at 10 μM; read-out: Percentage inhibition of kinase PDGFR-α. The experiment is classed as biochemical. How it is done: as §1, with “bacteria. [table]” for “bacteria.”, “transfer. Clin Chem 41, 1391-7 (1995)).” for “transfer.”
Sequence of PDGFRα kinase (h) (P16234 24-1089): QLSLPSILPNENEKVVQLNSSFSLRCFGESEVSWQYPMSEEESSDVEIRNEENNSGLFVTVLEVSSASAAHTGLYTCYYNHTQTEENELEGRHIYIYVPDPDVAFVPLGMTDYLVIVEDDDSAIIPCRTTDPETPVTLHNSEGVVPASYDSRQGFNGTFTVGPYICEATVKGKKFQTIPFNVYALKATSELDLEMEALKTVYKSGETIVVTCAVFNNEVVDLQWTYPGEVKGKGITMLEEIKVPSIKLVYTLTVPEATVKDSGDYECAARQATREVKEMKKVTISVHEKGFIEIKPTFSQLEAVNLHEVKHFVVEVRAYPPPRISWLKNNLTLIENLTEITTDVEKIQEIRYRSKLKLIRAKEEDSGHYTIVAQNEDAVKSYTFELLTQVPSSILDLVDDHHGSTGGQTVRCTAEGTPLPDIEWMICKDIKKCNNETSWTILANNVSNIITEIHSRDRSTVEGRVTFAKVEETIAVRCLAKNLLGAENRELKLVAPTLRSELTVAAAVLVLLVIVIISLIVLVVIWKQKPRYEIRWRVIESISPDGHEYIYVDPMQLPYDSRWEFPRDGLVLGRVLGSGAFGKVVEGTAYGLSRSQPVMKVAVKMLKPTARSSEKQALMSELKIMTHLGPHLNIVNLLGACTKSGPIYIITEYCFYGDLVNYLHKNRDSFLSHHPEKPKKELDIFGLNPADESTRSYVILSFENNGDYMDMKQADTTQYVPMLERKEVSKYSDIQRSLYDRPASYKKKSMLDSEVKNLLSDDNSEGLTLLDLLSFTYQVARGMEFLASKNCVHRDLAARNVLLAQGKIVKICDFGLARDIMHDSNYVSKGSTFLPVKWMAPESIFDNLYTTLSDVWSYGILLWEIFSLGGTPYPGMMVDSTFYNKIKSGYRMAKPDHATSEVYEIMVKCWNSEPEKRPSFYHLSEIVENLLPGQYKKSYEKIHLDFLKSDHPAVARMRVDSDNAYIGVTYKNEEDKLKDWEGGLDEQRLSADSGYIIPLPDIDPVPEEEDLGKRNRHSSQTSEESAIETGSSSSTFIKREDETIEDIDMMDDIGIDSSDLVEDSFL

For the next experiment, the target named is Abl WT (Homo sapiens (Human), UniProt P00519). In words: Reaction Biology Corp. kinase assay, Abl WT. Type of experiment: biochemical. The note with it: Table 11; ATP at 10 μM; read-out: IC50 in nM Abl WT. How it is done:
(§2) 4 compounds were tested for their capacity to inhibit various mutated kinases AbI (American company, Reaction Biology Corp.).

In the next experiment the target is Abl Y253F (Homo sapiens (Human), UniProt P00519, Y253F). In words: Reaction Biology Corp. kinase assay, mutated Abl Y253F. Type of experiment: biochemical. The conditions noted are these: Table 11; ATP at 10 μM. The procedure: as §2
For a further experiment, the target named is Abl T315I (Homo sapiens (Human), UniProt P00519, T315I). In words: Reaction Biology Corp. kinase assay, mutated Abl T315I. Type of experiment: biochemical. The note with it: Table 11; ATP at 10 μM; read-out: IC50 in nM Abl T315I. How it is done:
as §2

In experiment [1] the test system is K562 cells expressing kinase Bcr-AbI. In words: Inhibition of cellular proliferation (MTT), K562 cells. Type of experiment: cell-based, human. The note with it: Homo sapiens. The procedure:
Cellular tests were carried out at the Montpellier Cancer Research Centre. The inhibition of proliferation by our compounds was analysed on 2 cell lines (U937 and K562) by calculating the IC50, testing 6 concentrations in triplicate for each of the compounds and for each line.
Cells in exponential phase were seeded in 96-well plates at a concentration of 10^4 cells/100 μL/well. The final concentrations of compound in the well in contact with the cells were 0.1; 0.3; 0.9; 3.3; 10; 30; 90 μM. […]

pIC50: −log10 of the molar value. Where two headings read alike, the source gives them in different places.

Sequence of Src kinase (h) (P12931 whole entry, looked up): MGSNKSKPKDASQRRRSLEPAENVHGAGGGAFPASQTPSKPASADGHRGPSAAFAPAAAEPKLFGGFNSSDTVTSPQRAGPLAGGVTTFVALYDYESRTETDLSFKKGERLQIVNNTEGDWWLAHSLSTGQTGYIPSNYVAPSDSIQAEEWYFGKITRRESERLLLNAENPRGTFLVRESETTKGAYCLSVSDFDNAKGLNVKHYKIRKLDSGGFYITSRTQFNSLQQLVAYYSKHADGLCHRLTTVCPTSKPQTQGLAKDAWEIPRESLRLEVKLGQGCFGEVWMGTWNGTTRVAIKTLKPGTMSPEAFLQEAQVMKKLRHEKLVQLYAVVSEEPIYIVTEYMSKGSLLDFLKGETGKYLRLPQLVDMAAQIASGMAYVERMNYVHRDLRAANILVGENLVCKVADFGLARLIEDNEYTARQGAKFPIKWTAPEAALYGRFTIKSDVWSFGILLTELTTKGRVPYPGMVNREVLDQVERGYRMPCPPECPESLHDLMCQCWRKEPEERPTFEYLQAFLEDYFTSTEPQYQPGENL
Sequence of c-kit kinase (h) (P10721 26-976): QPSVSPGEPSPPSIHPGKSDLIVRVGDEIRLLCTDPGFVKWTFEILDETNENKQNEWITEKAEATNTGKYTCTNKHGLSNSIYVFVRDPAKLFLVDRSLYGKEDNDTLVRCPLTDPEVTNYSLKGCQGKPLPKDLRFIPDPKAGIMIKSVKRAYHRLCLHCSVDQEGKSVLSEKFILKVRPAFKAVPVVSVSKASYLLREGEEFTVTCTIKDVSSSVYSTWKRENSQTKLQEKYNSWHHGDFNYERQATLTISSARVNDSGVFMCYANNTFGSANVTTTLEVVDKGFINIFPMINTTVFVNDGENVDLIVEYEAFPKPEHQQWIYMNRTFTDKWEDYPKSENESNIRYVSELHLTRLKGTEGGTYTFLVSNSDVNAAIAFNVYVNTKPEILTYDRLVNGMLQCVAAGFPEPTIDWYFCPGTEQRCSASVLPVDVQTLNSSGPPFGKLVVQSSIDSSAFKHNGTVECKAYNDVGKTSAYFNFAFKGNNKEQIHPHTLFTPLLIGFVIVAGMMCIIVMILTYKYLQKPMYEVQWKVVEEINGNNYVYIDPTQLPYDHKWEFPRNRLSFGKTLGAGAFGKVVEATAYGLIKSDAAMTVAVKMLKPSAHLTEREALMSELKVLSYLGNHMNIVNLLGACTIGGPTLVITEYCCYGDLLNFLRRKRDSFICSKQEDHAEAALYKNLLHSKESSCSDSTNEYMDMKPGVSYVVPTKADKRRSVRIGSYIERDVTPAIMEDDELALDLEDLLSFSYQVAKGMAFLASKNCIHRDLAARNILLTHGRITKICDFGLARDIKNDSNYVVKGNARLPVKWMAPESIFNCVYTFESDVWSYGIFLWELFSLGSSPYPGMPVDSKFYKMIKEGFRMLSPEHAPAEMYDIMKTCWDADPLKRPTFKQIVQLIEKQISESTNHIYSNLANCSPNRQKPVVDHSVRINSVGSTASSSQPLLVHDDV

On to `COC(=O)c1cc2cc(NC(=O)c3ccccc3Br)cnc2[nH]1` [ND0020, Methyl 5-(2-bromobenzamido)-1H-pyrrolo[2,3-b]pyridine-2-carboxylate], for which the inhibition at 10 µM at Abl kinase (h) (10 μM, compounds tested by Cerep, read-out: % inhibition of kinase activity, Abl WT (category)) was greater than 50%; on Abl kinase (h) (Table 6, compound incubated at 10 μM, read-out: Percentage inhibition of kinase Abl), 85%; at Abl kinase (h) (Table 8, compound incubated at 10 μM, read-out: Percentage inhibition of kinase Abl) it was 85%; at c-kit kinase (h) it was 10%; on Src kinase (h) (10 μM, compounds tested by Cerep, read-out: % inhibition of kinase activity, Src (category)), greater than 50%; on Src kinase (h) (compound incubated at 10 μM, read-out: Percentage inhibition of kinase c-Src) it was 50%. Also, the values for the inhibition at 10 µM on AurA/Aur2 kinase (h) and on PDGFRα kinase (h) were 5% and 0%, respectively. In addition, the negative-log IC50 (pIC50) at Abl kinase (h) (Table 9, Cerep, 5 concentrations 10^−10 M to 10^−4 M, read-out: IC50 in M Abl) is 6.34; on Abl kinase (h) (compounds tested by Cerep, read-out: IC50 on kinase Abl WT (category)) it was 5.00 to 7.00; in experiment [1] (K562, 24 h, 24 h incubation, read-out: IC50 at 24 h on K562 (category)), 5.00 to 6.00; in experiment [1] (K562, 72 h, read-out: IC50 at 72 h on K562 (category), 72 h incubation), 5.00 to 6.00. Besides, the IC50 on Abl WT was 44.6 nM; against Abl Y253F it was less than 10 nM; on Abl T315I, greater than 100000 nM.
